Assays:
[1] = system: human gastric cancer (NUGC); assay: In vitro cytotoxicity against NUGC cells; assay type: cell-based; conditions: gastric cancer, concentration producing 50% reduction in cell growth, read-out: Cytotoxicity (IC50 in nM) NUGC
Procedure: (§1) The heterocyclic compounds, prepared in this study, were evaluated according to standard protocols for their in vitro cytotoxicity against six human cancer cell lines including cells derived from human gastric cancer (NUGC), human colon cancer (DLD1), human liver cancer (HA22T and HEPG2), nasopharyngeal carcinoma (HONE1), human breast cancer (MCF) and normal fibroblast cells (WI38). For comparison purposes, CHS 828, a pyridyl cyanoguanidine, was used as a standard antitumor drug (Figure 2). […] All the synthesized compounds were tested for their cytotoxicity against normal fibroblast cells.
(§2) Fetal bovine serum (FBS) and L-glutamine, were purchased from Gibco Invitrogen Co. (Scotland, UK). RPMI-1640 medium was purchased from Cambrex (East Rutherford, NJ, USA). Dimethyl sulfoxide (DMSO), CHS 828, penicillin, streptomycin and sulforhodamine B (SRB) were purchased from Sigma Chemical Co. (Saint Louis, MO, USA).
(§3) Cell cultures were obtained from the European Collection of Cell Cultures (ECACC, Salisbury, UK) and human gastric cancer (NUGC), human colon cancer (DLD1), human liver cancer (HA22T and HEPG2), human breast cancer (MCF), nasopharyngeal carcinoma (HONE1) and normal fibroblast cells (WI38) were kindly provided by the National Cancer Institute (NCI, Cairo, Egypt). They were grown as a monolayer and routinely maintained in RPMI-1640 medium supplemented with 5% heat inactivated FBS, 2 mM glutamine and antibiotics (penicillin 100 U/mL, streptomycin 100 µg/mL) at 37 °C in a humidified atmosphere containing 5% CO2. Exponentially growing cells were obtained by plating 1.5 × 10^5 cells/mL for the six human cancer cell lines followed by 24 h of incubation. The effect of the vehicle solvent (DMSO) on the growth of these cell lines was evaluated in all the experiments by exposing untreated control cells to the maximum concentration (0.5%) of DMSO used in each assay.

[2] = In vitro cytotoxicity against normal fibroblast cells WI38; assay type: cell-based; conditions: human, concentration producing 50% reduction in cell growth
Procedure: as §1, §2, §3

[3] = system: nasopharyngeal carcinoma (HONE1); assay: In vitro cytotoxicity against HONE1 cells; assay type: cell-based; conditions: Homo sapiens; HONE1, nasopharyngeal carcinoma; concentration producing 50% reduction in cell growth; read-out: Cytotoxicity (IC50 in nM) HONE1
Procedure: as §1, §2, §3

[4] = system: human liver cancer (HA22T); assay: In vitro cytotoxicity against HA22T cells; assay type: cell-based; conditions: liver cancer, concentration producing 50% reduction in cell growth, read-out: Cytotoxicity (IC50 in nM) HA22T
Procedure: as §1, §2, §3

[5] = system: human colon cancer (DLD1); assay: In vitro cytotoxicity against DLD1 cells; assay type: cell-based; conditions: DLD-1, DLDI, colon cancer, concentration producing 50% reduction in cell growth, read-out: Cytotoxicity (IC50 in nM) DLDI
Procedure: as §1, §2, §3

[6] = system: human breast cancer (MCF); assay: In vitro cytotoxicity against MCF cells; assay type: cell-based; conditions: MCF, breast cancer, concentration producing 50% reduction in cell growth, read-out: Cytotoxicity (IC50 in nM) MCF
Procedure: as §1, §2, §3

[7] = system: human liver cancer (HEPG2); assay: In vitro cytotoxicity against HEPG2 cells; assay type: cell-based; conditions: HEPG2, liver cancer, concentration producing 50% reduction in cell growth, read-out: Cytotoxicity (IC50 in nM) HEPG2
Procedure: as §1, §2, §3

Compound: N#CC1=C(N)NC(c2cc3ccccc3oc2=O)=C(Br)C1c1ccccc1 (centres unmarked) [Compound 7a, 2-Amino-5-bromo-6-(2-oxo-2H-chromen-3-yl)-4-phenyl-1,4-dihydropyridine-3-carbonitrile]
- IC50 [1]: 38 nM
- IC50 [2]: 379 nM
- IC50 [3]: 423 nM
- IC50 [4]: 166 nM
- melting point: 171 to 173 °C
- IC50 [5]: 893 nM
- IC50 [6]: 463 nM
- IC50 [7]: 399 nM

Compound: N#CC1=C(N)NC(c2cc3ccccc3oc2=O)=C(C#N)C1c1ccccc1 (centres unmarked) [Compound 11a, 2-Amino-6-(2-oxo-2H-chromen-3-yl)-4-phenyl-1,4-dihydropyridine-3,5-dicarbonitrile]
- IC50 [1]: 680 nM
- IC50 [2]: 128 nM
- IC50 [3]: 2320 nM
- IC50 [4]: 314 nM
- melting point: 133 to 135 °C
- IC50 [5]: 222 nM
- IC50 [6]: 4940 nM
- IC50 [7]: 3350 nM

Compound: N#CC1=C(N)NC(c2cc3ccccc3oc2=O)=C(C#N)C1c1ccco1 (centres unmarked) [Compound 11d, 2-Amino-4-(furan-2-yl)-6-(2-oxo-2H-chromen-3-yl)-1,4-dihydropyridine-3,5-dicarbonitrile]
- IC50 [1]: 649 nM
- IC50 [2]: 652 nM
- IC50 [3]: 1190 nM
- IC50 [4]: 137 nM
- melting point: 168 to 170 °C
- IC50 [5]: 3460 nM
- IC50 [6]: 40 nM
- IC50 [7]: 3120 nM

Compound: N#CC1=C(N)OC(c2cc3ccccc3oc2=O)=C(Br)C1c1ccc(Cl)cc1 (centres unmarked) [Compound 6c, 2-Amino-5-bromo-4-(4-chlorophenyl)-6-(2-oxo-2H-chromen-3-yl)-4H-pyran-3-carbonitrile]
- IC50 [1]: 38 nM
- IC50 [2]: 480 nM
- IC50 [3]: 1670 nM
- IC50 [4]: 2270 nM
- melting point: 178 to 180 °C
- IC50 [5]: 283 nM
- IC50 [6]: 89 nM
- IC50 [7]: 683 nM

Compound: Cc1ccc(-n2cc(-c3cc4ccccc4oc3=O)sc2=Nc2ccccc2)cc1 [Compound 5b, 3-(2-(Phenylimino)-3-(p-tolyl)-2,3-dihydrothiazol-5-yl)-2H-chromen-2-one]
- IC50 [1]: 2210 nM
- IC50 [2]: 489 nM
- IC50 [3]: 2180 nM
- IC50 [4]: 1290 nM
- melting point: 99 to 101 °C
- IC50 [5]: 1070 nM
- IC50 [6]: 1230 nM
- IC50 [7]: 1300 nM

Compound: O=c1oc2ccccc2cc1-c1cn(-c2ccc(Cl)cc2)c(=Nc2ccccc2)s1 [Compound 5d, 3-(3-(4-Chlorophenyl)-2-(phenylimino)-2,3-dihydrothiazol-5-yl)-2H-chromen-2-one]
- IC50 [1]: 38 nM
- IC50 [2]: 860 nM
- IC50 [3]: 441 nM
- IC50 [4]: 120 nM
- melting point: 123 to 125 °C
- IC50 [5]: 163 nM
- IC50 [6]: 1260 nM
- IC50 [7]: 3740 nM

Compound: N#CC1=C(N)OC(c2cc3ccccc3oc2=O)=C(C#N)C1c1ccccc1 (centres unmarked) [Compound 10a, 2-Amino-6-(2-oxo-2H-chromen-3-yl)-4-phenyl-4H-pyran-3,5-dicarbonitrile]
- IC50 [1]: 537 nM
- IC50 [2]: 417 nM
- IC50 [3]: 6270 nM
- IC50 [4]: 1160 nM
- melting point: 173 to 175 °C
- IC50 [5]: 440 nM
- IC50 [6]: 2530 nM
- IC50 [7]: 2770 nM

Compound: COc1ccc(C2C(Br)=C(c3cc4ccccc4oc3=O)OC(N)=C2C#N)cc1 (centres unmarked) [Compound 6b, 2-Amino-5-bromo-4-(4-methoxyphenyl)-6-(2-oxo-2H-chromen-3-yl)-4H-pyran-3-carbonitrile]
- IC50 [1]: 3320 nM
- IC50 [2]: 280 nM
- IC50 [3]: 2850 nM
- IC50 [4]: 2260 nM
- melting point: 193 to 195 °C
- IC50 [5]: 2670 nM
- IC50 [6]: 2850 nM
- IC50 [7]: 169 nM

Compound: Nc1cc(-c2cc3ccccc3oc2=O)nn1-c1ccccc1 [Compound 9b, 3-(5-Amino-1-phenyl-1H-pyrazol-3-yl)-2H-chromen-2-one]
- IC50 [1]: 1120 nM
- IC50 [3]: 4270 nM
- IC50 [4]: 1580 nM
- melting point: 158 to 160 °C
- IC50 [5]: 2240 nM
- IC50 [6]: 1650 nM
- IC50 [7]: 415 nM

Compound: COc1ccc(C2C(C#N)=C(N)OC(c3cc4ccccc4oc3=O)=C2C#N)cc1 (centres unmarked) [Compound 10b, 2-Amino-4-(4-methoxyphenyl)-6-(2-oxo-2H-chromen-3-yl)-4H-pyran-3,5-dicarbonitrile]
- IC50 [1]: 1340 nM
- IC50 [3]: 2180 nM
- IC50 [4]: 89 nM
- melting point: 113 to 115 °C
- IC50 [5]: 2280 nM
- IC50 [6]: 2120 nM
- IC50 [7]: 1320 nM

Compound: CCOC(=O)c1c(N)sc(Br)c1-c1cc2ccccc2oc1=O [Compound 4b, Ethyl 2-amino-5-bromo-4-(2-oxo-2H-chromen-3-yl)thiophene-3-carboxylate]
- IC50 [1]: 84 nM
- IC50 [3]: 1210 nM
- IC50 [4]: 219 nM
- melting point: 177 to 179 °C
- IC50 [5]: 167 nM
- IC50 [6]: 1140 nM
- IC50 [7]: 2020 nM

Compound: COc1ccc(C2C(Br)=C(c3cc4ccccc4oc3=O)NC(N)=C2C#N)cc1 (centres unmarked) [Compound 7b, 2-Amino-5-bromo-4-(4-methoxyphenyl)-6-(2-oxo-2H-chromen-3-yl)-1,4-dihydropyridine-3-carbonitrile]
- IC50 [1]: 782 nM
- IC50 [2]: 160 nM
- IC50 [3]: 180 nM
- IC50 [4]: 783 nM
- melting point: 164 to 166 °C
- IC50 [5]: 532 nM
- IC50 [6]: 409 nM
- IC50 [7]: 738 nM

Compound: O=C(C(Br)=NNc1ccccc1)c1cc2ccccc2oc1=O [Compound 2, 2-oxo-2-(2-oxo-2H-chromen-3-yl)-N'-phenylacetohydrazonoylbromide]
- IC50 [1]: 48 nM
- IC50 [3]: 1480 nM
- IC50 [4]: 1120 nM
- melting point: 88 to 90 °C
- IC50 [5]: 60 nM
- IC50 [6]: 288 nM
- IC50 [7]: 174 nM

Compound: N#CC1=C(N)OC(c2cc3ccccc3oc2=O)=C(C#N)C1c1ccco1 (centres unmarked) [Compound 10d, 2-Amino-4-(furan-2-yl)-6-(2-oxo-2H-chromen-3-yl)-4H-pyran-3,5-dicarbonitrile]
- IC50 [1]: 47 nM
- IC50 [3]: 220 nM
- IC50 [4]: 102 nM
- melting point: 133 to 135 °C
- IC50 [5]: 68 nM
- IC50 [6]: 2250 nM
- IC50 [7]: 3320 nM

Compound: N#CC(C#N)=C(CO)c1cc2ccccc2oc1=O [Compound 3, 2-(2-Hydroxy-1-(2-oxo-2H-chromen-3-yl)ethylidene)malononitrile]
- IC50 [1]: 1160 nM
- IC50 [2]: 910 nM
- IC50 [3]: 699 nM
- IC50 [4]: 1650 nM
- melting point: 162 to 164 °C
- IC50 [5]: 1280 nM
- IC50 [6]: 821 nM
- IC50 [7]: 1230 nM

Compound: N#CC1=C(N)OC(c2cc3ccccc3oc2=O)=C(Br)C1c1ccco1 (centres unmarked) [Compound 6d, 2-Amino-5-bromo-4-(furan-2-yl)-6-(2-oxo-2H-chromen-3-yl)-4H-pyran-3-carbonitrile]
- IC50 [1]: 29 nM
- IC50 [3]: 279 nM
- IC50 [4]: 2110 nM
- melting point: 148 to 150 °C
- IC50 [5]: 98 nM
- IC50 [6]: 931 nM
- IC50 [7]: 360 nM
